Results reported in ChEMBL document CHEMBL2331470 (J Med Chem, 2013).
Calls of active or inactive are those of the source. The calls are words filed in the database; no cut-off is given here.

Assays:
[1] = target: T1, Histone deacetylase 8 (Homo sapiens, UniProt Q9BY41); assay: Inhibition of HDAC8 (unknown origin) assessed as fluorescence intensity measured after 60 mins incubation at room temperature by trypsin-free microfluidic lab-on-a-chip assay
T1 sequence (Q9BY41 whole entry): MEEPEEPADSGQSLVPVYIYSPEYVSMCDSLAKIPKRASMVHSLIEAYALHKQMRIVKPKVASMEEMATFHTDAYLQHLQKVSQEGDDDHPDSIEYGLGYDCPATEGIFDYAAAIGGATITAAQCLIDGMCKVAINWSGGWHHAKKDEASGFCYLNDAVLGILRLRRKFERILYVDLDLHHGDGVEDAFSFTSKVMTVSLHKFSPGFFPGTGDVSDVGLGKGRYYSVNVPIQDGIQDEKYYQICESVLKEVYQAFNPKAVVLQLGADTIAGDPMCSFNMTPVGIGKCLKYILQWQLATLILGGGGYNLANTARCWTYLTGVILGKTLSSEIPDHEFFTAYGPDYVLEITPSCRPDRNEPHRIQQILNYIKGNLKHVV

[2] = target: Histone deacetylase 4 (Homo sapiens, UniProt P56524); assay: Inhibition of HDAC4 (unknown origin) assessed as fluorescence intensity measured after 60 mins incubation at room temperature by trypsin-free microfluidic lab-on-a-chip assay
[3] = target: Histone deacetylase 2 (Homo sapiens, UniProt Q92769); assay: Inhibition of HDAC2 (unknown origin) assessed as fluorescence intensity measured after 60 mins incubation at room temperature by trypsin-free microfluidic lab-on-a-chip assay
[4] = target: T2, Protein deacetylase HDAC6 (Homo sapiens, UniProt Q9UBN7); assay: Inhibition of HDAC6 (unknown origin) assessed as fluorescence intensity measured after 60 mins incubation at room temperature by trypsin-free microfluidic lab-on-a-chip assay
T2 sequence (Q9UBN7 whole entry): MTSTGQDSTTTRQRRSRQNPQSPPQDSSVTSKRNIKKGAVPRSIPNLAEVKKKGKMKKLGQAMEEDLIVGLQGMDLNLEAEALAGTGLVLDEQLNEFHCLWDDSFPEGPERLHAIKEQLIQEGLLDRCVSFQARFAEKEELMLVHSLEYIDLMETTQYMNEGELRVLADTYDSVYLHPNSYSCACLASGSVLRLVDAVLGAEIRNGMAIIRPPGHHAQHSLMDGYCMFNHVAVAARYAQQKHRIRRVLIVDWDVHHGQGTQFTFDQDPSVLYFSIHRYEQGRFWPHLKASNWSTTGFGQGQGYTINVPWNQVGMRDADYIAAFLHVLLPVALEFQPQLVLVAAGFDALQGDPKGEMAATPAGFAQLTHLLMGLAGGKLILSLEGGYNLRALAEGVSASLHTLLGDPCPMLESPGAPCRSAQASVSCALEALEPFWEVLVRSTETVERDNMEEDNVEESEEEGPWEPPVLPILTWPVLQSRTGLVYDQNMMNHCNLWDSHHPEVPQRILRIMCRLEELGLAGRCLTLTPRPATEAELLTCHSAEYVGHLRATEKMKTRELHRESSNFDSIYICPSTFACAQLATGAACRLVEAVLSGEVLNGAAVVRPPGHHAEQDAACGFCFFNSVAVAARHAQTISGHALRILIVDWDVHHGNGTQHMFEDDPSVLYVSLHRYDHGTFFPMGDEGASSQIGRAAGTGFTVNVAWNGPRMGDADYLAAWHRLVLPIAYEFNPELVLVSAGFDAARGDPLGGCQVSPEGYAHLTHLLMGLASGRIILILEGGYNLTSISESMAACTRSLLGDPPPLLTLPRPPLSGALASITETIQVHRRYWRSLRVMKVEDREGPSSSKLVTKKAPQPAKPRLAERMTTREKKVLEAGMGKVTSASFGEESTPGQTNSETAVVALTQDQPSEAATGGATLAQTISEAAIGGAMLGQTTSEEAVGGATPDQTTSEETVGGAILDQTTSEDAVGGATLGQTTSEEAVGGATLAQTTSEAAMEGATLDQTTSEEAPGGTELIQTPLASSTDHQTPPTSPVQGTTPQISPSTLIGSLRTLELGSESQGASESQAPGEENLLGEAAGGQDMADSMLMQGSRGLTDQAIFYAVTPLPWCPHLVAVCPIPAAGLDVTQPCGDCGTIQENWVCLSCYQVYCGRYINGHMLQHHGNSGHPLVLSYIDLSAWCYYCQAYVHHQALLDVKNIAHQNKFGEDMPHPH

[5] = target: T3, Histone deacetylase 3 (Homo sapiens, UniProt O15379); assay: Inhibition of HDAC3 in human HeLa cells assessed as increase in acetylated H3 at 30 uM measured after 24 hrs by Western blotting analysis; type: cell-based
[6] = target: T4, Protein deacetylase HDAC6 (Homo sapiens) (UniProt Q9UBN7); assay: Inhibition of HDAC6 in human HeLa cells assessed as increase in acetylated alpha-tubulin measured after 24 hrs by Western blotting analysis; type: cell-based
T4 sequence (whole entry): T2 sequence (Q9UBN7 whole entry)

[7] = target: Histone deacetylase 9 (Homo sapiens, UniProt Q9UKV0); assay: Inhibition of HDAC9 (unknown origin) assessed as fluorescence intensity measured after 60 mins incubation at room temperature by trypsin-free microfluidic lab-on-a-chip assay
[8] = target: Histone deacetylase 5 (Homo sapiens, UniProt Q9UQL6); assay: Inhibition of HDAC5 (unknown origin) assessed as fluorescence intensity measured after 60 mins incubation at room temperature by trypsin-free microfluidic lab-on-a-chip assay
[9] = target: T3, Histone deacetylase 3; assay: Inhibition of HDAC3 (unknown origin) assessed as fluorescence intensity measured after 60 mins incubation at room temperature by trypsin-free microfluidic lab-on-a-chip assay
[10] = target: Histone deacetylase 1 (Homo sapiens, UniProt Q13547); assay: Inhibition of HDAC1 (unknown origin) assessed as fluorescence intensity measured after 60 mins incubation at room temperature by trypsin-free microfluidic lab-on-a-chip assay
Histone deacetylase 1, sequence (Q13547 whole entry): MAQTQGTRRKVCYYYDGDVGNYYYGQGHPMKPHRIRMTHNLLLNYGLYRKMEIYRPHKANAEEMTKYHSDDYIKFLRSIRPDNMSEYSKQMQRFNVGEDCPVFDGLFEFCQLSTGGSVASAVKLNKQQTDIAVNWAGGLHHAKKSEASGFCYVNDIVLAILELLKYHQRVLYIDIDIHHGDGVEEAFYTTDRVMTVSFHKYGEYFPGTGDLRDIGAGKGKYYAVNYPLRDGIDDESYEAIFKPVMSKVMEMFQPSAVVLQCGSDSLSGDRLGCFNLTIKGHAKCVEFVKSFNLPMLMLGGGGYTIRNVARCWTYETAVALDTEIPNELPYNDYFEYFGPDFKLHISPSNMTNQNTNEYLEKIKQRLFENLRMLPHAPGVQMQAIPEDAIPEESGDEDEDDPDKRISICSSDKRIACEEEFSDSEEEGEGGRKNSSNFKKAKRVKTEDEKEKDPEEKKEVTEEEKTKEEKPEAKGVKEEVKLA

Histone deacetylase 4, sequence (P56524 whole entry): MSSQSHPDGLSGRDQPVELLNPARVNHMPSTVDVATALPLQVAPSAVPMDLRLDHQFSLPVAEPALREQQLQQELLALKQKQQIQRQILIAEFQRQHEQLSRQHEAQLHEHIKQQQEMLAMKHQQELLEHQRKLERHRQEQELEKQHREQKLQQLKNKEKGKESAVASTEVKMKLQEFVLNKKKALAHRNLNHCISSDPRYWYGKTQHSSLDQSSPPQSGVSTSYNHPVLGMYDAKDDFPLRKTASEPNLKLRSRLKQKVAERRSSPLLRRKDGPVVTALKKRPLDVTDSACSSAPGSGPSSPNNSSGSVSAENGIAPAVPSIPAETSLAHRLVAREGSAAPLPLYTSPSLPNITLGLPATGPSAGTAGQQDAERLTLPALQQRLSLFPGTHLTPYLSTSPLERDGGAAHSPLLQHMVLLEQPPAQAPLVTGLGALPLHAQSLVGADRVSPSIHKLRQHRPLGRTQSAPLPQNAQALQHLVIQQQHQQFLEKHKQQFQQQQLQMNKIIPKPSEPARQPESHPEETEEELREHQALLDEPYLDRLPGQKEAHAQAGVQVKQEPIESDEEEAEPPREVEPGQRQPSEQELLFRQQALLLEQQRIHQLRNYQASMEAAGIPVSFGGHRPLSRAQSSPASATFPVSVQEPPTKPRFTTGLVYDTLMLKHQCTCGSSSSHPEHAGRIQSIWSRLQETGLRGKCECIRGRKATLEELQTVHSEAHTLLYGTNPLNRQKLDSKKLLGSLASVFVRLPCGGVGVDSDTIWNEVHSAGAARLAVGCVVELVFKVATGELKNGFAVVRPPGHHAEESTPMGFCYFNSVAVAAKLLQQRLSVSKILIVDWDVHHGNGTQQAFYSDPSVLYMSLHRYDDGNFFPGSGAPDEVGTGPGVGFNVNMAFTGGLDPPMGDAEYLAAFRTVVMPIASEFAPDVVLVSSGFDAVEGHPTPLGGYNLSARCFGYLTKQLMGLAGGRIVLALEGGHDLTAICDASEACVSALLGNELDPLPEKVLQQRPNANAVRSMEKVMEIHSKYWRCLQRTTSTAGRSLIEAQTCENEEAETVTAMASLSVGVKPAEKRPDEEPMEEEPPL
T3 sequence (O15379 whole entry): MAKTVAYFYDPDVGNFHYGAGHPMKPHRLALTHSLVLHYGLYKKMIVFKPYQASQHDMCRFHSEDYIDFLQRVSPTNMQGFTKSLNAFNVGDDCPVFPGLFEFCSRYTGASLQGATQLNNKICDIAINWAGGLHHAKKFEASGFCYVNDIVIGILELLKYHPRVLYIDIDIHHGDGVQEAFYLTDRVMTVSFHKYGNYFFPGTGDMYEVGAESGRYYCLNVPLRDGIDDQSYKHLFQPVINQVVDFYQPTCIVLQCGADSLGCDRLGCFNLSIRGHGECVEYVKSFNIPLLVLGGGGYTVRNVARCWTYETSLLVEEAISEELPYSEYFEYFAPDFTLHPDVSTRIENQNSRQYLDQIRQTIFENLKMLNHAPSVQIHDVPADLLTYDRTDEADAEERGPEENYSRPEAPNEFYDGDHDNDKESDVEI
Histone deacetylase 2, sequence (Q92769 whole entry): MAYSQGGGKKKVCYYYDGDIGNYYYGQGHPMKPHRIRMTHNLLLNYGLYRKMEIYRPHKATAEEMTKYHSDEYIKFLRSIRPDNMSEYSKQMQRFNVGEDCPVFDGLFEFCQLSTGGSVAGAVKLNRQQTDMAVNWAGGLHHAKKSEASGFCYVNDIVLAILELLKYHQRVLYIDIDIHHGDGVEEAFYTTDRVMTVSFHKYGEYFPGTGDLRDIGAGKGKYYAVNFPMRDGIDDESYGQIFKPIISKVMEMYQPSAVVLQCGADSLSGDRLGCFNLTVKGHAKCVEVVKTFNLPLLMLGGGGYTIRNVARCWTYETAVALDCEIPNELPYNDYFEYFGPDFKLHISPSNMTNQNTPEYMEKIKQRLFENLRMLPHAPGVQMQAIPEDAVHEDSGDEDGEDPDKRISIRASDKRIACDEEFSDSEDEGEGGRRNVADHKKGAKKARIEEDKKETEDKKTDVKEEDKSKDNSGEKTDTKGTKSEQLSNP
Histone deacetylase 5, sequence (Q9UQL6 whole entry): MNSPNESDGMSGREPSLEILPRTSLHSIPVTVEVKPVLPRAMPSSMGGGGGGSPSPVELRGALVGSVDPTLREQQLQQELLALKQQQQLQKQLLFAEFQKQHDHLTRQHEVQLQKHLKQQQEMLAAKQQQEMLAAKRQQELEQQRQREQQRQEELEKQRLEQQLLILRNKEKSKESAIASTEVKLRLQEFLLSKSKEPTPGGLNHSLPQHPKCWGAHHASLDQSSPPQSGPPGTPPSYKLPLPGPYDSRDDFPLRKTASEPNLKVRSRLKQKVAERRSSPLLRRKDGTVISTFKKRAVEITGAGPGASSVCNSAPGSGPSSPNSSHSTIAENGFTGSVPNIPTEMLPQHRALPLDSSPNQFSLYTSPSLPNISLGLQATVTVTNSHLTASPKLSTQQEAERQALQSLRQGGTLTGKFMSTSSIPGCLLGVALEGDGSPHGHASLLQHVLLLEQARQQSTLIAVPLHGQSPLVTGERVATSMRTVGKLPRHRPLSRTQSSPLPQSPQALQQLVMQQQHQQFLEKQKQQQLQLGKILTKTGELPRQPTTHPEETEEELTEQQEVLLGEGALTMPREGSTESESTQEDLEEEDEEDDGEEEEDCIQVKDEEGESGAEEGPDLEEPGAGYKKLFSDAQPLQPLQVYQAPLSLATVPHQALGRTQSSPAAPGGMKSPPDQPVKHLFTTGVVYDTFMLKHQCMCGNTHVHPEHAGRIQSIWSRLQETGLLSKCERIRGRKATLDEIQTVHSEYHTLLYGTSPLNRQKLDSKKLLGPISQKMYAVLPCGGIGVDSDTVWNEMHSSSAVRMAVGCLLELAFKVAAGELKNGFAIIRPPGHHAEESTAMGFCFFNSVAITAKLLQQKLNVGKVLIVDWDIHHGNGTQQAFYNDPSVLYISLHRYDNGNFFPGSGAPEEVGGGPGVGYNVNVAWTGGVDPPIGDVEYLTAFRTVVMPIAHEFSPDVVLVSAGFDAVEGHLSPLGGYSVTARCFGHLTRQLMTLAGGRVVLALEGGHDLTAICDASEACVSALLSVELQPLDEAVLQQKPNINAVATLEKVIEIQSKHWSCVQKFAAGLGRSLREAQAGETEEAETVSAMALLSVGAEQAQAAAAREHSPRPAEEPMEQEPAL
Histone deacetylase 9, sequence (Q9UKV0 whole entry): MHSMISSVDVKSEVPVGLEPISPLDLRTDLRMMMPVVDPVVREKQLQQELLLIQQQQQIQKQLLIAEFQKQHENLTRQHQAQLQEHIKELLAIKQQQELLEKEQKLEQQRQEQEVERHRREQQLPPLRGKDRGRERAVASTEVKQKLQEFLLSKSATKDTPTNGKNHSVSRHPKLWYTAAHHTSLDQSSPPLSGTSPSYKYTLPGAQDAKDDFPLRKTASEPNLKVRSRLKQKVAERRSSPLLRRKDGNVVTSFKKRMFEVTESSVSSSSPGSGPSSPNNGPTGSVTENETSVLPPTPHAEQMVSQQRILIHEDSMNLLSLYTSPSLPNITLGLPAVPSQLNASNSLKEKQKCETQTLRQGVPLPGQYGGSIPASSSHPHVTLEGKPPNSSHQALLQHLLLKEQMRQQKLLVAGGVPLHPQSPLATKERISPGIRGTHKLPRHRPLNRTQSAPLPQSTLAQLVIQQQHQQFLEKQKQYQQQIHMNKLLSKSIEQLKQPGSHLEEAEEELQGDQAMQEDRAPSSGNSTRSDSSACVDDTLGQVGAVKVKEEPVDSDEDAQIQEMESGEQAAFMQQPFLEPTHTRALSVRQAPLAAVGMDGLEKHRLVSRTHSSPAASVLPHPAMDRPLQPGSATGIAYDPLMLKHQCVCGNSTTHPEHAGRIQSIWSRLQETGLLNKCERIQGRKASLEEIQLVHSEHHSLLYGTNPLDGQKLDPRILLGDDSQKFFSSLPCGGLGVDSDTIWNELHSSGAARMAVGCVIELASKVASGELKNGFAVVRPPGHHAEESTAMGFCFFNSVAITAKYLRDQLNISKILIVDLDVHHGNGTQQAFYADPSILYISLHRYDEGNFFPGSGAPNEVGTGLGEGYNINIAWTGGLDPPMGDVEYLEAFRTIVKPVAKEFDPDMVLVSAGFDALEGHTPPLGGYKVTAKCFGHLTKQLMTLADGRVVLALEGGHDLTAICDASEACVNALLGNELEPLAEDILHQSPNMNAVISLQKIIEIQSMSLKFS

For `O=C(Cc1ccccc1)NO` [PHENYLACETOHYDROXAMIC ACID], the IC50 [1] was 11600 nM, the IC50 [2] was > 33300 nM and the IC50 [3] was > 33300 nM.
In the case of `O=C(NO)c1ccc(C(=O)Nc2ccccc2)cc1`, the IC50 [1] is reported as 689 nM, the IC50 [4] is reported as 37 nM and the IC50 [2] is reported as > 33300 nM.
With `CN1CCN(CCNC(=O)c2ccc(C(=O)NO)cc2)CC1` the IC50 [1] was 20900 nM, the IC50 [4] was 1360 nM and the IC50 [2] was > 33300 nM.
With `O=C(CCc1ccccc1)NO` the IC50 [1] was 2350 nM, the IC50 [4] was 448 nM and the IC50 [2] was > 33300 nM. For the same compound, the IC50 [3] was 2720 nM.
In the case of `O=C(NO)C1CCCCC1`, the IC50 [1] is reported as 3720 nM, the IC50 [4] is reported as 376 nM and the IC50 [2] is reported as > 33300 nM. The IC50 [3] was > 33300 nM.
`O=C(NO)C1=CCCCC1` was tested, and the inhibition [5] was “inactive”, the inhibition [6] was “Active” and the IC50 [1] was 431 nM. It also gave an IC50 [4] of 12 nM, an IC50 [2] of 9130 nM and an IC50 [3] of 1050 nM.
`CNC(=O)c1ccc(C(=O)NO)cc1` was tested, and the inhibition [5] was “inactive”, the inhibition [6] was “Active” and the IC50 [1] was 1950 nM. For the same compound, the IC50 [4] was 28 nM and the IC50 [2] was > 33300 nM.
For `O=C(NO)c1ccc(C(=O)NCCc2ccccc2)cc1`, the IC50 [1] was 1150 nM and the IC50 [2] was > 33300 nM.
In the case of `O=C(NO)c1ccccc1` [BENZOHYDROXAMATE], the IC50 [7] is reported as > 33300 nM, the IC50 [8] is reported as > 33300 nM and the IC50 [9] is reported as 7830 nM. The IC50 [10] was 4730 nM, the inhibition [5] was “inactive” and the inhibition [6] was “Active”. For the same compound, the IC50 [1] was 1920 nM, the IC50 [4] was 115 nM and the IC50 [2] was > 33300 nM. It also gave an IC50 [3] of 7910 nM.
In the case of `O=C(/C=C/c1ccccc1)NO`, the IC50 [1] is reported as 759 nM, the IC50 [4] is reported as 22 nM and the IC50 [2] is reported as 19500 nM. The IC50 [3] was 457 nM.
In the case of `O=C(NO)c1ccc(C(=O)NCCc2ccncc2)cc1`, the IC50 [1] is reported as 1330 nM, the IC50 [4] is reported as 8 nM and the IC50 [2] is reported as > 33300 nM.
`O=C(NO)c1ccc(C(=O)NCc2ccccc2)cc1` was tested, and the IC50 [1] was 1030 nM, the IC50 [4] was 7 nM and the IC50 [2] was > 33300 nM. For the same compound, the IC50 [3] was 381 nM.
With `O=C(NO)C1=CCCC1` the IC50 [7] was > 33300 nM, the IC50 [8] was 18300 nM and the IC50 [9] was 694 nM. For the same compound, the IC50 [10] was 638 nM, the inhibition [5] was “inactive” and the inhibition [6] was “Dose-dependent effect”. For the same compound, the IC50 [1] was 1090 nM, the IC50 [4] was 30 nM and the IC50 [2] was 21800 nM. The IC50 [3] was 1790 nM.
